Results taken from patent publication US7098195B2, “Fluorinated glucosamine analogs useful for modulating post-translational glycosylations on cells” (Health Research, Inc., priority 2001, dated 2006).
Read-outs that look alike come from different tables or passages of the source.

Legend:
[1] = system: HECA-452 epitopes on PSGL-1; experiment: Western blot of HECA-452 epitopes on PSGL-1 of CLA+ T-cells; format: cell-based, human
Procedure: For analysis of CLA expression on T-cells treated with glycoconjugate modifiers, CLA^+ T-cells were first pretreated with neuraminidase (0.1 U/ml at 37° C. for 1 h) to eliminate functional CLA and cleave all HECA-452 reactive epitopes from the cell surface (35–38). Since we wanted to investigate whether these compounds directly affected CLA expression and function, neuraminidase pretreatment followed by incubations with glycosylation modifiers allowed for examination of de novo synthesized CLA/HECA-452 epitopes re-expressed on the cell surface. After neuraminidase digestion, cells were then incubated with tunicamycin (0.02 mM) (an inhibitor of GlcNAc phosphotransferase, the initial step of N-glycosylation), swainsonine (0.23 mM) (an inhibitor of α-mannosidase II and complex-type N-glycosylation), 4-F-GlcNAc (0.05 mM) (putative inhibitor of poly-N-acetyllactosamine biosynthesis), BAG (an inhibitor of O-glycan biosynthesis) (<2 mM) or GlcNAc (5 mM) (negative control, naturally-occurring metabolic counterpart of 4-F-GlcNAc)for 30 h in the presence of human recombinant IL-2. […] Concentrations for BAG were selected based on maximal O-glycosylation inhibitory effects at non-growth inhibitory concentrations as previously reported (39). To determine a suitable concentration of 4-F-GlcNAc for examining glycoconjugate-modifying effects without influencing cell growth or protein synthesis, we performed preliminary growth inhibitory experiments of cells incubated with 4-F-GlcNAc for 2 cell doublings (˜36 h) at 37° C. (cell viability assessed by Trypan-blue exclusion).
For lysate preparation, cells (including radiolabeled cells) were washed 3× in ice cold PBS and lysed in buffer containing 150 mM NaCl, 50 mM Tris-HCl pH 7.4, 1 mM EDTA, 0.02% NaAzide, 20 μg/ml PMSF, Complete™ protease inhibitors cocktail tablets (Roche Molecular Biochemicals) and 2% NP-40 (250 μl/10^8 cells). Following 2 h incubation on ice, insoluble cellular debris was pelleted by centrifugation for 30 min at 10,000×g at 4° C. and solubilized protein lysate was collected and quantified by Bradford protein assay (Sigma Chemical). SDS was added to a final concentration of 1% in lysate preparations utilized for immunoprecipitation experiments.
For SDS-PAGE and Western blotting, cell lysates, membrane proteins or immunoprecipitates were diluted and boiled in reducing sample buffer, and separated on 7–9% SDS-PAGE gels. Resolved protein was transferred to Sequi-blot™ PVDF membrane (Bio-Rad, Inc., Hercules, Calif.) and blocked with FBS for 1 hr at RT. Blots were incubated with rat IgM anti-human CLA HECA-452 (1 μg/ml), mouse IgG anti-human PSGL-1 moAbs PL-2 (1 μg/ml), 203, 4F9 and 4D8 (1 μg each/ml), or mouse IgG anti-human CD43 L60 (1 μg/ml) for 1 hr at RT. Isotype control immunoblots using either rat IgM or mouse IgG were performed in parallel to evaluate non-specific reactive proteins. After three washes with PBS/0.1%Tween-20 (10 min/wash), blots were incubated with the respective secondary Ab, AP-conjugated goat anti-rat IgM (1:400) or goat anti-mouse IgG (1:8000). AP substrate, Western Blue® (Promega, Madison, Wis.) was then added to develop blots.
Cells were then re-cultured in the presence of glycosylation inhibitor, diluent control (PBS) or molecular control (GlcNAc) for 30 hr and then harvested for CLA expression and functional analysis. […] To assess the duration of anti-carbohydrate effects on HECA-452 expression on PSGL-1, cells treated with 4-F-GlcNAc for 30 h and were then re-cultured in non-4-F-GlcNAc-containing medium for 72 h.

[2] = system: HCELL/CD44 activity on human hematopoietic KG1a cells; experiment: Stamper-Woodruff adhesion assay, L-selectin-dependent lymphocyte adherence to KG1a cells; format: cell-based; conditions: for relative potency as inhibitor of HCELL activity: 4-F-GlcNAc vs swainsonine, tunicamycin vs both
Excerpt: To study the effects of 4-F-GlcNAc on the function of the L-selectin binding activity of CD44 (HCELL), we employed the shear-based, Stamper-Woodruff adhesion assay to examine the ability of 4-F-GlcNAc-treated KG1a cells to support L-selectin-dependent lymphocyte adherence. This assay is utilized to specifically assess the shear-dependent binding interactions between L-selectin naturally expressed on lymphocytes and HCELL expressed on KG1a cells (Dimitroff, C. J. et al. (2000) Proc. Nat. Acad. Sci., 97(25):13841–46; Sackstein, R. and Dimitroff, C. J. (2000) Blood, 96: 2765–74.). Before treating KG1a cells with 0.05, 0.1 or 0.5 mM 4-F-GlcNAc, we first pretreated KG1a cells with Vibrio cholerae neuraminidase (0.1 U/ml for 1 hr at 37° C.) to cleave all terminal α2,3 sialic acid-bearing residues and eliminate all HCELL activity. Glutaraldehyde-fixed monolayers of KG1a cells that were first treated with Vibrio cholerae neuraminidase (0.1 U/ml for 1 hr at 37° C.) then re-cultured in the presence of 4-F-GlcNAc (0.05–0.5 mM) for 30 hr at 37° C. Metabolic inhibitors swainsonine, an inhibitor of α-mannosidase II, tunicamycin, an inhibitor of N-acetylglucosamine phosphototransferase, were also utilized to compare the relative potencies of known glycosylation inhibitors. Human peripheral blood lymphocytes (5×10^6cells/ml RPMI1640 w/o NaBicarbonate/5%FBS) were overlayed onto KG1a monolayers at 80 rpm for 30 min. at 4° C., and after gently washing in PBS, lymphocytes bound to cell monolayers were fixed in 3% glutaraldehyde. Re-expression of HCELL activity or HECA-452-reactive CD44 on KG1a cells was determined after […] of 4-F-GlcNAc treatment. Bound lymphocytes were quantified at 100× magnification from a minimum of 5 fields from 2 slides, and the mean number of lymphocytes (standard error of the mean) was calculated.

[3] = system: α-mannose (ConA staining); format: cell-based, human; conditions: compared with PBS or GlcNAc treatments
Procedure: For lectin blotting, cell lysates (25 μg/spot) were spotted onto methanol-permeabilized PVDF membrane and blocked in FBS for 1 h at RT. Blots were then probed with AP-Canavalia ensiformis agglutinin (ConA) (2.0 μg/ml PBS; specificity: α-mannose), AP-Triticum vulgaris (Wheat germ) agglutinin (WGA) (0.5 μg/ml PBS; specificity: terminal GlcNAc or GlcNAcβ1,4GlcNAc) or AP-Lycopersicon esculentum (tomato lectin) agglutinin (LEA) (1.0 μg/ml PBS; specificity: (Galβ1,4GlcNAc)n) for 1 h at RT (All lectins from EY Labs., Inc., San Mateo, Calif.). After washing 3× in PBS/0.1% Tween-20 and 1× in PBS (10 min each), blots were developed with Western Blue®.
To analyze and identify the glycan modifications on CLA^+ T-cells treated with 4-F-GlcNAc, lectin blotting experiments were performed with ConA (Specificity: α-mannose), WGA (Specificity: terminal GlcNAc or GlcNAcβ1,4GlcNAc) and LEA (Specificity: {Galβ1,4GlcNAc}n).

[4] = 30 h after neuraminidase, tunicamycin 0.02 mM, swainsonine 0.23 mM, 4-F-GlcNAc 0.05 mM, BAG 2.0 mM, GlcNAc 5.0 mM

Compound: CC(=O)N[C@H]1C(O)O[C@H](CO)[C@@H](O)[C@@H]1O (stereo partly drawn) [GlcNAc, N-acetylglucosamine]
- de novo synthesized HECA-452 epitopes on PSGL-1 (Western blot) [1, 4]: not affected

Compound: O[C@H]1[C@H]2[C@H](O)CCCN2C[C@H]1O [swainsonine]
- inhibition at 230 µM ([2]; Homo sapiens, KG-1a, KG1a neuraminidase then recovery in 0.23 mM, read-out: % Inhibition (lymphocyte binding)): 74%
- Mean Lymphocyte Binding ([2]; KG1a neuraminidase then recovery in 0.23 mM): 60.7
- de novo synthesized HECA-452 epitopes on PSGL-1 (Western blot) [1]: not affected
- ConA staining of lysates [3]: enhanced

Compound: CC(=O)N[C@H]1C(OC(C)=O)O[C@H](COC(C)=O)[C@@H](F)[C@@H]1OC(C)=O (stereo partly drawn) [4-F-GlcNAc, 2-acetamido-2-deoxy-1,3,6-tri-O-acetyl-4-deoxy-4-fluoro-D-glucopyranose]
- relative potency as inhibitor of HCELL activity [2]: more potent inhibitor of HCELL activity
- inhibition at 50 µM ([2]; Homo sapiens, KG-1a, KG1a neuraminidase then recovery in 0.05 mM, read-out: % Inhibition (lymphocyte binding)): 60%
- inhibition at 100 µM ([2]; Homo sapiens, KG-1a, KG1a neuraminidase then recovery in 0.1 mM, read-out: % Inhibition (lymphocyte binding)): 78%
- inhibition at 500 µM ([2]; Homo sapiens, KG-1a, KG1a neuraminidase then recovery in 0.5 mM, read-out: % Inhibition (lymphocyte binding)): 94%
- Mean Lymphocyte Binding ([2]; KG1a neuraminidase then recovery in 0.05 mM): 93.6
- Mean Lymphocyte Binding ([2]; KG1a neuraminidase then recovery in 0.1 mM): 50.6
- Mean Lymphocyte Binding ([2]; KG1a neuraminidase then recovery in 0.5 mM): 15.4
- potency at lowering HECA-452 expression relative to BAG, on a molar basis [1]: more potent than BAG
- de novo synthesized HECA-452 epitopes on PSGL-1 (Western blot) [1, 4]: marked reduction
- duration of suppression of HECA-452 expression on PSGL-1 after removal of drug ([1]; treated for 30 h then re-cultured in non-4-F-GlcNAc-containing medium for 72 h): 48 h
- ConA staining of lysates [3]: no effect

Compound: tunicamycin
- relative potency as inhibitor of HCELL activity [2]: more potent inhibitor of HCELL activity than both swainsonine and 4-F-GlcNAc
- de novo synthesized HECA-452 epitopes on PSGL-1 (Western blot) [1]: marked reduction
- potency at lowering HECA-452 expression relative to 4-F-GlcNAc, on a molar basis [1]: 2.5 fold
- effects on HECA-452 expression ([1]; below 0.015 mM, preliminary, data not shown): minimal effects
- ConA staining of lysates [3]: eliminated
